Test results reported in patent US20130203789A1, “Novel Inhibitors of LYN Kinase and Methods Using Same” (VASSA INFORMATICS, priority 2012, published 2013).

Legend:
[1] = test system: LYN; details: BT549 cells, Western blot; cited from earlier work
[2] = test system: mesenchymal breast cancer lines; details: at concentrations that inhibit LYN kinase activity; cited from earlier work
[3] = test system: mesenchymal breast cancer lines; details: at concentrations that inhibit LYN kinase activity; cited from earlier work; remark: listed apart in the source
[4] = target: Abl kinase (BCR-Abl) (Homo sapiens, UniProt P00519); assay: Kinase profiling, Abl; type: biochemical; details: 100 μM concentration
Experimental: (§1) FIG. 9 is a schematic kinome tree illustrating the evolutionary relationships between 299 kinases. The inhibition of 68 representative kinases by VI301 at 100 μM concentration was evaluated.
(§2) The three compounds identified in Example 1 were tested for kinase activity at Millipore (Dundee UK). The compounds were shipped as 10 mM stocks in DMSO as per Millipore testing standards. The testing consisted of two initial phases:
(§3) (a) Profiling against a set of approximately 60 kinases, selected as representative of all kinases and current kinase drug targets, to determine the selectivity of the compounds; and, (b) IC50 testing againstr EGFR, the kinase target of the initial search template molecule.

[5] = target: CamK1 (Homo sapiens, UniProt Q14012); assay: Kinase profiling, CamK1; type: biochemical; details: 100 μM concentration
Experimental: as §1, §2, §3

[6] = target: T1, Lyn(h) (Homo sapiens, UniProt P07948); assay: Millipore kinase profiling, Lyn; type: biochemical; details: 100 μM concentration
T1 construct: purchased Millipore (Dundee UK), contract testing service
Experimental: as §2, §3

[7] = target: T2, WNK3(h) (Homo sapiens, UniProt Q9BYP7); assay: Millipore kinase profiling, WNK3; type: biochemical; details: 100 μM concentration
T2 construct: purchased Millipore (Dundee UK), contract testing service
Experimental: as §2, §3

[8] = target: T3, Pim-1(h) (Homo sapiens, UniProt P11309); assay: Millipore kinase profiling, Pim-1; type: biochemical; details: 100 μM concentration
T3 construct: purchased Millipore (Dundee UK), contract testing service
Experimental: as §2, §3

T1 sequence (P07948 1-491 isoform P07948-2): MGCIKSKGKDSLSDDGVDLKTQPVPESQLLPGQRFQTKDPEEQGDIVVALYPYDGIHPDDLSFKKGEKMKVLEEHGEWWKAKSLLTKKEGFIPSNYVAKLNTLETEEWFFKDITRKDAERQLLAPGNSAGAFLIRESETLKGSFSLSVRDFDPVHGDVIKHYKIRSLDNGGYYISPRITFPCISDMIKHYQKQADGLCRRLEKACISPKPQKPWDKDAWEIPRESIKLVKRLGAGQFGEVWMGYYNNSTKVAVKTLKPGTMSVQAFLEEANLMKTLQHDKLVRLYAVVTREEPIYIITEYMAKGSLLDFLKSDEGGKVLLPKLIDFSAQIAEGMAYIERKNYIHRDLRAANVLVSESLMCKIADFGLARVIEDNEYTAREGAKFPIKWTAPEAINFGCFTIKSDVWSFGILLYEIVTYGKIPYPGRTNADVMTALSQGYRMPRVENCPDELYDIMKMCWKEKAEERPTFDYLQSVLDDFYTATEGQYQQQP
T3 sequence (P11309 whole entry): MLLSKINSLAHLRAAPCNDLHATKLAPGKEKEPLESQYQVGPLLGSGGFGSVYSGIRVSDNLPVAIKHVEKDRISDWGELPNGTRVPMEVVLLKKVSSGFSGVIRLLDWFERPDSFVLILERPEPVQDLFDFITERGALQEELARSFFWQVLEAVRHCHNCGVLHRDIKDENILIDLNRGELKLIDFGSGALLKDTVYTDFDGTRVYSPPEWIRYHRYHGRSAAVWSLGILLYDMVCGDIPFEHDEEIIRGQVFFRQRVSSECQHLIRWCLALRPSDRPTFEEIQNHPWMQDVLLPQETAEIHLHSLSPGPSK
Abl kinase (BCR-Abl), sequence (P00519 27-1130 limits assumed): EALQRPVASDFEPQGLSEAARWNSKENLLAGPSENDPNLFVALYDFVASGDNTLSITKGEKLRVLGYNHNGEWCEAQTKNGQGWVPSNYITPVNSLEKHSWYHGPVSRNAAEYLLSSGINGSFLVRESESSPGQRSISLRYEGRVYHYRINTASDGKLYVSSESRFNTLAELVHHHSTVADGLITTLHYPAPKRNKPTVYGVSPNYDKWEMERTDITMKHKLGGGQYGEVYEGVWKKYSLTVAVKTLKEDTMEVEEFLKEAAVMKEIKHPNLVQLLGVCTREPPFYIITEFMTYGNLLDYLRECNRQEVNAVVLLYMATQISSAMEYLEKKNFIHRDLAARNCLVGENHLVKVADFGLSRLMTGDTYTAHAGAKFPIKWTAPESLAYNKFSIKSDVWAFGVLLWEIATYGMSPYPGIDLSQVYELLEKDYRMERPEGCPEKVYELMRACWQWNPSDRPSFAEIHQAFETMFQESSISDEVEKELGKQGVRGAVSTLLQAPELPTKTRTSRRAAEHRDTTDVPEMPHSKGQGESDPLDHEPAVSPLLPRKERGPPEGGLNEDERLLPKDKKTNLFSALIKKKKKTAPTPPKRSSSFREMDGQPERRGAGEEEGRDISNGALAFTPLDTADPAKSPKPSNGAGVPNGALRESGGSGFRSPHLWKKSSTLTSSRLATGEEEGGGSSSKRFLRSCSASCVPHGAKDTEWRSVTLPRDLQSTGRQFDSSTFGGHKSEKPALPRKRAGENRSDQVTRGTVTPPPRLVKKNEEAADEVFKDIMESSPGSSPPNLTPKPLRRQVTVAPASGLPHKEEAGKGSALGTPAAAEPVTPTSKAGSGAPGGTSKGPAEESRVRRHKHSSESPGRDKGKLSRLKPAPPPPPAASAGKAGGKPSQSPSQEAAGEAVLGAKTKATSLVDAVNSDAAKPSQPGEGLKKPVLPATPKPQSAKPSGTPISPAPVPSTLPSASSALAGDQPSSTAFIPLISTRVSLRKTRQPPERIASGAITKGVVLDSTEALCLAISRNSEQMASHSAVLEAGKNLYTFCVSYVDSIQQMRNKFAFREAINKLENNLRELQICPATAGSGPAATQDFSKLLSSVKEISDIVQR
T2 sequence (Q9BYP7 whole entry): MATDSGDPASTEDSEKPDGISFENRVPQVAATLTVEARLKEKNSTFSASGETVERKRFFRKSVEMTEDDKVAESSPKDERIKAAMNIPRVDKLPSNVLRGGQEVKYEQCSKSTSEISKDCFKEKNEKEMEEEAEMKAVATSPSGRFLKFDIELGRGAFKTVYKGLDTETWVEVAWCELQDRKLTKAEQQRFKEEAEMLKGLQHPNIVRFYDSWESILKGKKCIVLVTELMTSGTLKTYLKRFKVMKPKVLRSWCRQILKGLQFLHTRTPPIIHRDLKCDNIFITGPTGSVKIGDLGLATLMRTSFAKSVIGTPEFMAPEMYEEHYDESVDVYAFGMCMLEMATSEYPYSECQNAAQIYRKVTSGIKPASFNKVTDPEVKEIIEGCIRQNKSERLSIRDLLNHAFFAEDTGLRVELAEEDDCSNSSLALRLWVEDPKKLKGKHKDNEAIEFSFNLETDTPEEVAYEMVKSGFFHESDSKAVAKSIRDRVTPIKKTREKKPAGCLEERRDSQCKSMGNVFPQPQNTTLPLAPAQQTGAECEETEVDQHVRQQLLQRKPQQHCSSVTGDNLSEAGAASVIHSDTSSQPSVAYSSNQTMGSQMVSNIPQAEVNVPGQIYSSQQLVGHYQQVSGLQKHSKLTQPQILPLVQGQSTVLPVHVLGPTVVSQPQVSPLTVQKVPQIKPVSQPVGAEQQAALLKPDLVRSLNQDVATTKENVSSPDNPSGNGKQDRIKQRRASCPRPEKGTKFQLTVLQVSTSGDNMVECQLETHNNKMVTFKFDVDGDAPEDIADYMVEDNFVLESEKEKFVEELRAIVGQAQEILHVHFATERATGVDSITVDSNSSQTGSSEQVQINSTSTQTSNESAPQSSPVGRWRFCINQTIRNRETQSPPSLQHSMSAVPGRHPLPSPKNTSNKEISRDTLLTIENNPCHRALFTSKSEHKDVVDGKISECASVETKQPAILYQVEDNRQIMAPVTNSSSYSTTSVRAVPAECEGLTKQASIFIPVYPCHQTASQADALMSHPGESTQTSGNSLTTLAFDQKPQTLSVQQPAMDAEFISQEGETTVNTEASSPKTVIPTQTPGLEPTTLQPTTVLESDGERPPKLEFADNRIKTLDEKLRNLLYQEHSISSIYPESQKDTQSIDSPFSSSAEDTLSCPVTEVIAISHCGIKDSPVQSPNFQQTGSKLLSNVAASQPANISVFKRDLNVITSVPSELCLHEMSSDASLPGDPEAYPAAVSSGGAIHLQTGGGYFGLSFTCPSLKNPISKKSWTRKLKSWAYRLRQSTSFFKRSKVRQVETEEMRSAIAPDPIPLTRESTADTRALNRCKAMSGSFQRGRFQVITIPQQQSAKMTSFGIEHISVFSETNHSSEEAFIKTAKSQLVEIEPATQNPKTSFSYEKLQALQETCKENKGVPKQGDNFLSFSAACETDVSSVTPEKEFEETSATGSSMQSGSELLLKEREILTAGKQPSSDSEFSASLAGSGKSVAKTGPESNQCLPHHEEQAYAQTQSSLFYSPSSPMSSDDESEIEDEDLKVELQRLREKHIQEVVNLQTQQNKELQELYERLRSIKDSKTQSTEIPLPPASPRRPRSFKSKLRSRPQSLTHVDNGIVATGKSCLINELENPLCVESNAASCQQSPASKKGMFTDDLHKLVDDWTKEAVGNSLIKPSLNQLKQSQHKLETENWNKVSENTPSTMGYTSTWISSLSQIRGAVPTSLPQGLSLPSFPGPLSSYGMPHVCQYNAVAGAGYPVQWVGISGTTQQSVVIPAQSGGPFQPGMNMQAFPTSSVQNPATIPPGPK

Row | Structure (SMILES) | phosphorylated (activated) LYN [1] | cell invasion [2] | cell proliferation [3] | inhibition at 100 µM [4] | inhibition at 100 µM [5] | inhibition at 100 µM [6] | inhibition of LYN kinase (in words) [6] | inhibition at 100 µM [7] | inhibition at 100 µM [8]
1 | Cc1nc(Nc2ncc(C(=O)Nc3c(C)cccc3Cl)s2)cc(N2CCN(CCO)CC2)n1 [Dasatinib, N-(2-chloro-6-methylphenyl)-2-[[6-[4-(2-hydroxyethyl)-1-piperazinyl]-2-methyl-4-pyrimidinyl]amino]-5-thiazole carboxamide] | decreased phosphorylated (activated) LYN | blocked invasion | not proliferation |  |  |  |  |  | 
2 | Cc1nn2c(ncc3c(=O)n(-c4ccccc4)ccc32)c1-c1ccccc1 [VI301, 2-methyl-3,7-diphenylpyrazolo[1,5-a]pyrido[3,4-e]pyrimidin-6(7H)-one] |  |  |  | 106% | 26% | 95% | good inhibition | 3% | 12%
